What was measured:
[1] = in vivo; details: Cyprinodon variegatus (sheepshead minnow, larval)
Description: (§1) […]. EPA/600/4-90/027F Washington, D.C.) conducted at Pacific Eco-Risk Laboratories, Martinez, Calif.
(§2) LOEC is the Lowest Observable Effect Concentration and is defined as the minimum concentration where mortality is observed for the test species. […] LC-50, the concentration that will cause mortality of 50% of the organisms tested within 96 h, is a calculated value based on all observations.
(§3) The solutions were mixed for 48 hours prior to the start of the bioassays. The solutions were diluted to perform bioassays at starting glutaraldehyde concentrations of 100, 50, 37.5, 25, and 10.5 mg/L. The results are summarized in Table X.

[2] = tested on: Larval Sheepshead Minnow (Cyprinodon variegatus); experiment: in vivo; details: Cyprinodon variegatus (sheepshead minnow), 96 h
Description: as §1, §2, §3

[3] = tested on: bacterial inoculum; experiment: Neutralization of biocides with monoethanolamine; type: cell-based; details: for Growth, Neutralization of Biocides with MEA: minimal media:FT diesel 10:1; for onset of microbial growth (delayed from 3 days): no MEA
Description: In all experiments, a 10:1 ratio of minimal media to Fischer-Tropsch diesel fuel were prepared and evaluated in 250 ml flasks.
In addition to these experiments, several controls were run without Glutaraldehyde as follows: […]

[4] = tested on: bacterial inoculum; experiment: Evaluation of biocides: inhibition of growth on FT diesel and ALAD diesel; type: cell-based, alkane degrading organisms; for Growth, Test Results on ALAD Diesel Fuel: key: −: No Growth; +: Growth (White Unless Otherwise Indicated); for Growth, Test Results on Fischer-Tropsch Diesel Fuel: key: −: No Growth; +: Growth (White Unless Otherwise Indicated)
Description: The ability of biocides to inhibit growth on a FT diesel and a low aromatics diesel fuel from Example 1 was investigated.
Test Conditions: 90 ml of growth media and 10 ml of either FT diesel or low sulfur (ALAD) diesel was added to 250 ml flasks. […] In addition to the 2 alkynes, glutaraldehyde (glutaric dialdehyde 50%), was tested. The following summarizes the test conditions:
100 ppm inhibitor (on a total test volume basis or 1000 ppm in diesel)
1% inhibitor (on a total test volume basis or 10% in diesel).
After inoculation, the flasks were place on a shaker-table (135 rpm) at room temperature and observed daily.

O=CCCCC=O [G, glutaraldehyde]
9 days: onset of microbial growth (delayed from 3 days) ([3]; 1 ppm of glutaraldehyde)
more than 14 days: onset of microbial growth (delayed from 3 days) ([3]; 10 ppm of glutaraldehyde)
13 mg/L: NOEC [2]
26 µg/mL: LC50 at 96 h ([1]; 96 h, control experiment, separate compounds)
25 µg/mL: LC50 at 96 h ([1]; second experiment, as starting glutaraldehyde concentration, solutions mixed for 48 hours prior to bioassay)
25 mg/L: LOEC [2]
−: Growth, Neutralization of Biocides with MEA ([3]; 1 ppm G, Time 0 days) | Growth, Neutralization of Biocides with MEA ([3]; 1 ppm G, Time 1 days) | Growth, Neutralization of Biocides with MEA ([3]; 1 ppm G, Time 2 days) | Growth, Neutralization of Biocides with MEA ([3]; 1 ppm G, Time 3 days) | Growth, Neutralization of Biocides with MEA ([3]; 1 ppm G, Time 7 days) | Growth, Neutralization of Biocides with MEA ([3]; 10 ppm G, Time 0 days) | Growth, Neutralization of Biocides with MEA ([3]; 10 ppm G, Time 1 days) | Growth, Neutralization of Biocides with MEA ([3]; 10 ppm G, Time 2 days) | Growth, Neutralization of Biocides with MEA ([3]; 10 ppm G, Time 3 days) | Growth, Neutralization of Biocides with MEA ([3]; 10 ppm G, Time 7 days) | Growth, Neutralization of Biocides with MEA ([3]; 10 ppm G, Time 9 days) | Growth, Neutralization of Biocides with MEA ([3]; 10 ppm G, Time 14 days) | Growth, Neutralization of Biocides with MEA ([3]; 100 ppm G, Time 0 days) | Growth, Neutralization of Biocides with MEA ([3]; 100 ppm G, Time 1 days) | Growth, Neutralization of Biocides with MEA ([3]; 100 ppm G, Time 2 days) | Growth, Neutralization of Biocides with MEA ([3]; 100 ppm G, Time 3 days) | Growth, Neutralization of Biocides with MEA ([3]; 100 ppm G, Time 7 days) | Growth, Neutralization of Biocides with MEA ([3]; 100 ppm G, Time 9 days) | Growth, Neutralization of Biocides with MEA ([3]; 100 ppm G, Time 14 days) | Growth, Test Results on Fischer-Tropsch Diesel Fuel ([4]; FT Diesel + 1 Wt % biocide, Day 0) | Growth, Test Results on Fischer-Tropsch Diesel Fuel ([4]; FT Diesel + 1 Wt % biocide, Day 1) | Growth, Test Results on Fischer-Tropsch Diesel Fuel ([4]; FT Diesel + 1 Wt % biocide, Day 5) | Growth, Test Results on Fischer-Tropsch Diesel Fuel ([4]; FT Diesel + 1 Wt % biocide, Day 7) | Growth, Test Results on Fischer-Tropsch Diesel Fuel ([4]; FT Diesel + 1 Wt % biocide, Day 8) | Growth, Test Results on Fischer-Tropsch Diesel Fuel ([4]; FT Diesel + 1 Wt % biocide, Day 19) | Growth, Test Results on Fischer-Tropsch Diesel Fuel ([4]; FT Diesel + 100 ppm biocide, Day 0) | Growth, Test Results on Fischer-Tropsch Diesel Fuel ([4]; FT Diesel + 100 ppm biocide, Day 1) | Growth, Test Results on Fischer-Tropsch Diesel Fuel ([4]; FT Diesel + 100 ppm biocide, Day 5) | Growth, Test Results on Fischer-Tropsch Diesel Fuel ([4]; FT Diesel + 100 ppm biocide, Day 7) | Growth, Test Results on Fischer-Tropsch Diesel Fuel ([4]; FT Diesel + 100 ppm biocide, Day 8) | Growth, Test Results on ALAD Diesel Fuel ([4]; LA Diesel + 1 Wt % biocide, Day 0) | Growth, Test Results on ALAD Diesel Fuel ([4]; LA Diesel + 1 Wt % biocide, Day 1) | Growth, Test Results on ALAD Diesel Fuel ([4]; LA Diesel + 1 Wt % biocide, Day 5) | Growth, Test Results on ALAD Diesel Fuel ([4]; LA Diesel + 1 Wt % biocide, Day 7) | Growth, Test Results on ALAD Diesel Fuel ([4]; LA Diesel + 1 Wt % biocide, Day 8) | Growth, Test Results on ALAD Diesel Fuel ([4]; LA Diesel + 1 Wt % biocide, Day 19) | Growth, Test Results on ALAD Diesel Fuel ([4]; LA Diesel + 100 ppm biocide, Day 0) | Growth, Test Results on ALAD Diesel Fuel ([4]; LA Diesel + 100 ppm biocide, Day 1) | Growth, Test Results on ALAD Diesel Fuel ([4]; LA Diesel + 100 ppm biocide, Day 5) | Growth, Test Results on ALAD Diesel Fuel ([4]; LA Diesel + 100 ppm biocide, Day 7) | Growth, Test Results on ALAD Diesel Fuel ([4]; LA Diesel + 100 ppm biocide, Day 8) | Growth, Test Results on ALAD Diesel Fuel ([4]; LA Diesel + 100 ppm biocide, Day 19)
effective at a lower concentration: effectiveness as biocide (inhibits microbial growth) ([4]; ALAD diesel fuel) | effectiveness as biocide (inhibits microbial growth) ([4]; Fischer-Tropsch diesel fuel)
+: Growth, Neutralization of Biocides with MEA ([3]; 1 ppm G, Time 9 days) | Growth, Neutralization of Biocides with MEA ([3]; 1 ppm G, Time 14 days) | Growth, Test Results on Fischer-Tropsch Diesel Fuel ([4]; FT Diesel + 100 ppm biocide, Day 19)

From patent US6626122B2, “Deactivatable biocides in ballast water” (Chevron U.S.A. Inc, priority 2001, dated 2003)
